From patent US20150104520A1, “Nanoparticle Formulations in Biomarker Detection” (priority 2013, published 2015)

System: patients with epithelial ovarian cancer
Test: Phase 2 randomized two-arm trial, IG-001 plus carboplatin vs paclitaxel plus carboplatin, 1st line
From the text: Phase II ovarian trial design: randomized, two-arm trial, primary advanced epithelial ovarian cancer consisting of 100 patients (50/each arm). […] The primary objective of the study was to determine the Composite Response by GCIG CA-125 Response and Response Evaluation Criteria in Solid Tumors (RECIST): based on non-inferiority study. […] The treatment regimen included 6 cycles of treatment with injection every three weeks and tumor screening after cycles 2, 4 and 6.

Compound | Response n (%) (composite response by GCIG CA-125 and RECIST, IG-001 260 mg/m^2 or paclitaxel 175 mg/m^2, each + carboplatin 5 AUC, every 3 weeks, 6 cycles) | SAE Rate (%) (patients with SAE) | UAE Rate (%) (patients with UAE) | response rate (each with carboplatin) [%]
Paclitaxel + Carboplatin | 37 (77.08) n (%) | 15 (31.25) n (%) | 0 (0.00) n (%) | 
CC(=O)O[C@H]1C(=O)[C@@]2(C)[C@H]([C@H](OC(=O)c3ccccc3)[C@]3(O)C[C@H](OC(=O)[C@H](O)[C@@H](NC(=O)c4ccccc4)c4ccccc4)C(C)=C1C3(C)C)[C@]1(OC(C)=O)CO[C@@H]1C[C@@H]2O [paclitaxel] |  |  |  | 77.8
